Measured values as given in patent US20030224403A1 (priority 2002, published 2003).
Values joined by “and” are separate entries in the source; they are usually repeats but may differ in a detail not shown here. Identical values can stand only once. “Also recorded” adds a separate entry of the source. Residues, ends and D or L forms follow the SMILES beside them. *: point of attachment. Cbz = O=C(OCc1ccccc1)*; CH2F = FC*

Tests used:
[1] = tested on: B. anthracis spores; conditions: in vivo
[2] = tested on: Fas expression in RAW 264.7 cells; type: cell-based, mouse
[3] = mouse, in vivo, ip; cited from earlier work
[4] = tested on: RAW 264.7 cells; type: cell-based, mouse
[5] = tested on: RAW 264.7 cells; type: cell-based, mouse; remark: listed apart in the source
[6] = tested on: RAW 264.7 cells; type: cell-based, mouse; remark: listed apart in the source
[7] = tested on: RAW 264.7 cells; type: cell-based, mouse; remark: listed apart in the source
[8] = tested on: B. anthracis spores; conditions: in vivo; remark: listed apart in the source
[9] = tested on: human PBMCs infected with anthrax (Sterne) spores; type: cell-based
[10] = tested on: anthrax (Sterne) spores; design: species or system B. anthracis
[11] = tested on: RAW 264.7 cells infected with anthrax (Sterne) spores; type: cell-based, mouse
[12] = tested on: RAW 264.7 cells; type: cell-based, mouse; remark: listed apart in the source
[13] = tested on: human peripheral blood monocytes / PBMCs; type: cell-based
[14] = tested on: RAW 264.7 cells; type: cell-based, mouse; conditions: 4 h

## GM-CSF: recombinant murine granulocyte-macrophage colony stimulating factor
[1]; ip
  mice survived after 24 days: 20%
[2]
  Fas expression after stimulation with cytokine: greatly increased
[3]
  toxicity in mice: No toxicity
[4]
  effect of murine cytokine on cell lysis by LeTx: increased cell survival
[5]
  overall cell survival and relative number of apoptotic cells in presence of LeTx: substantially increased
  prevention of LeTx-induced apoptosis: incapable of preventing apoptosis completely
  protection of Raw 264.7 cells from LeTx: partially protected

## COC(=O)C[C@H](NC(=O)[C@H](C)NC(=O)[C@@H](NC(=O)[C@H](CC(=O)OC)NC(=O)[C@@H](NC(=O)OCc1ccccc1)C(C)C)C(C)C)C(=O)CF [inhibitor of caspase 2, Z-VDVAD-FMK] (Cbz-VD(OMe)VAD(OMe)-CH2F)
[6]
  protection of cells against LeTx (membrane permeability staining): different degree of protection

## COc1cccc(-c2cc(=O)c3ccccc3o2)c1N [PD 98059]
[7]
  antitoxin effect (cell survival, MTT): did not display an antitoxin effect; also recorded: do not increase cell survival; also recorded: none of these inhibitors increased cell survival

## COC(=O)CC[C@H](NC(=O)[C@H](CC(=O)OC)NC(=O)OCc1ccccc1)C(=O)N[C@H](C(=O)N[C@@H](CC(=O)OC)C(=O)CF)C(C)C [inhibitor of caspase 3, Z-DEVD-FMK]
[6]
  protection of cells against LeTx (membrane permeability staining): different degree of protection

## CC[C@H](C)[C@H](NC(=O)OCc1ccccc1)C(=O)N[C@@H](CCC(=O)OC)C(=O)N[C@H](C(=O)N[C@@H](CC(=O)OC)C(=O)CF)[C@@H](C)O [inhibitor of caspase 8, Z-IETD-FMK] (Cbz-IE(OMe)TD(OMe)-CH2F)
[6]
  protection of cells against LeTx (membrane permeability staining): most active

## COC(=O)C[C@H](NC(=O)[C@H](C)NC(=O)[C@@H](NC(=O)OCc1ccccc1)C(C)C)C(=O)CF [Z-VAD-fmk, benzyloxycarbonyl-Val-Ala-Asp-fluoromethylketone] (Cbz-Val-Ala-Asp(OMe)-CH2F)
[1]
  survival of mice: dead by 11 days
[1]; ip
  mice alive by day 15: 20%
  mice survived by day 15: 20% and 10%

## COc1ccc(CCN(C)CCCC(C#N)(c2ccc(OC)c(OC)c2)C(C)C)cc1OC (stereo not drawn) [verapamil]
[1]
  survival of mice: dead by 11 days

## CC[C@H](C)[C@H](NC(=O)[C@H](CCC(=O)OC)NC(=O)[C@@H](NC(=O)OCc1ccccc1)C(C)C)C(=O)N[C@@H](CC(=O)OC)C(=O)CF [inhibitor of caspase 6, Z-VEID-FMK] (Cbz-VE(OMe)ID(OMe)-CH2F)
[6]
  protection of cells against LeTx (membrane permeability staining): most active

## CO/C1=C\C(C)=C\[C@@H](C)[C@@H](O)[C@@H](C)C/C(C)=C/C=C/[C@H](OC)[C@@H]([C@@H](C)[C@@H](O)[C@H](C)[C@@]2(O)C[C@@H](O)[C@H](C)[C@@H](C(C)C)O2)OC1=O [bafilomycin A1]
[1]
  survival of mice: dead by 11 days

## C[S+]([O-])c1ccc(-c2nc(-c3ccncc3)c(-c3ccc(F)cc3)[nH]2)cc1 (stereo not drawn) [SB 203580]
[7]
  antitoxin effect (cell survival, MTT): not able to decrease the effect of LeTx; also recorded: do not increase cell survival; also recorded: none of these inhibitors increased cell survival

## NC[C@@H]1O[C@H](O[C@H]2[C@@H](O)[C@H](O[C@@H]3[C@@H](O)[C@H](N)C[C@H](N)[C@H]3O[C@H]3O[C@H](CN)[C@@H](O)[C@H](O)[C@H]3N)O[C@@H]2CO)[C@H](N)[C@@H](O)[C@@H]1O [neomycin]
[8]
  survival of mice after 10 days: less than 20%
[1]
  mice alive after 11 days: 100%

## CC(C)C[C@H](NC(=O)[C@@H](O)[C@H](N)Cc1ccccc1)C(=O)O [bestatin]
[8]
  mice dead by day 9: more than 30%
[9]
  killing (bactericidal) activity of human PBMCs: increased in a concentration dependent manner; also recorded: restores a bactericidal activity
[1]
  survival of mice: dead by 11 days
[10]
  intrinsic antibiotic activity: undetectable
[11]
  bactericidal activity of Raw 264.7 cells: restores a bactericidal activity

## TNF-α
[2]
  Fas expression after stimulation with cytokine: greatly increased
[4]
  effect of murine cytokine on cell lysis by LeTx: greatly increased cell lysis

## trypsin
[1]
  survival of mice: dead by 11 days

## IL-6: cytokine
[12]
  cell viability relative to cells treated with toxin only (MTT): increased cell viability

## Z-YVAD [inhibitor of caspase 4]
[6]
  protection of cells against LeTx (membrane permeability staining): most active

## CN[C@@H]1C[C@H]2O[C@@](C)([C@@H]1OC)n1c3ccccc3c3c4c(c5c6ccccc6n2c5c31)C(=O)NC4 [staurosporine]
[13]
  fluorescence pattern (YO-PRO-1) of human monocytes: fluorescence pattern typical of apoptotic cells
[14]
  mitochondrial transmembrane potential (JC-1 staining): JC-1 staining changes similar to LeTx

## O=C(O)c1cn(C2CC2)c2cc(N3CCNCC3)c(F)cc2c1=O [ciprofloxacin]
[8]
  mice alive after 15 days: approximately 50%
  survival of mice by day 12: 50%
[1]
  mice alive after 11 days: 100%
  mice survived at least 14 days: 100%
  protection of mice (FIG. 29): complete protection
  survival (FIG. 29): 10%

## CCN(CC)CCCC(C)Nc1ccnc2cc(Cl)ccc12 (stereo not drawn) [chloroquine]
[1]
  survival of mice: dead by 11 days

## COC(=O)CC[C@H](NC(=O)[C@H](CC(C)C)NC(=O)OCc1ccccc1)C(=O)N[C@@H](Cc1cnc[nH]1)C(=O)N[C@@H](CC(=O)OC)C(=O)CF [inhibitor of caspase-9, Z-LEHD-FMK] (Cbz-LE(OMe)HD(OMe)-CH2F)
[6]
  protection of cells against LeTx (membrane permeability staining): unable to protect

## COC(=O)CC[C@H](NC(=O)[C@H](Cc1c[nH]c2ccccc12)NC(=O)OCc1ccccc1)C(=O)N[C@@H](Cc1cnc[nH]1)C(=O)N[C@@H](CC(=O)OC)C(=O)CF [inhibitor of caspase 1, Z-WEHD-FMK] (Cbz-WE(OMe)HD(OMe)-CH2F)
[6]
  protection of cells against LeTx (membrane permeability staining): different degree of protection

B1: IFN-γ: recombinant mouse interferon-gamma (protein, UniProt P01579 24-161, looked up)
Interferon gamma: QDPYVKEAENLKKYFNAGHSDVADNGTLFLGILKNWKEESDRKIMQSQIVSFYFKLFKNFKDDQSIQKSVETIKEDMNVKFFNSNKKKRDDFEKLTNYSVTDLNVQRKAIHELIQVMAELSPAAKTGKRKRSQMLFRG
[2]
  Fas expression after stimulation with cytokine: greatly increased
[4]
  effect of murine cytokine on cell lysis by LeTx: increased cell susceptibility to lysis

B2: IL-4: cytokine (protein, UniProt P05112 25-153, looked up)
Interleukin-4: HKCDITLQEIIKTLNSLTEQKTLCTELTVTDIFAASKNTTEKETFCRAATVLRQFYSHHEKDTRCLGATAQQFHRHKQLIRFLKRLDRNLWGLAGLNSCPVKEANQSTLENFLERLKTIMREKYSKCSS
[12]
  cell viability relative to cells treated with toxin only (MTT): increased cell viability

B3: IL-12: murine interleukin-12 (protein, UniProt P29459 23-219; P29460 23-328, looked up)
Interleukin-12 subunit alpha: RNLPVATPDPGMFPCLHHSQNLLRAVSNMLQKARQTLEFYPCTSEEIDHEDITKDKTSTVEACLPLELTKNESCLNSRETSFITNGSCLASRKTSFMMALCLSSIYEDLKMYQVEFKTMNAKLLMDPKRQIFLDQNMLAVIDELMQALNFNSETVPQKSSLEEPDFYKTKIKLCILLHAFRIRAVTIDRVMSYLNAS
Interleukin-12 subunit beta: IWELKKDVYVVELDWYPDAPGEMVVLTCDTPEEDGITWTLDQSSEVLGSGKTLTIQVKEFGDAGQYTCHKGGEVLSHSLLLLHKKEDGIWSTDILKDQKEPKNKTFLRCEAKNYSGRFTCWWLTTISTDLTFSVKSSRGSSDPQGVTCGAATLSAERVRGDNKEYEYSVECQEDSACPAAEESLPIEVMVDAVHKLKYENYTSSFFIRDIIKPDPPKNLQLKPLKNSRQVEVSWEYPDTWSTPHSYFSLTFCVQVQGKSKREKKDRVFTDKTSATVICRKNASISVRAQDRYYSSSWSEWASVPCS
[4]
  effect of murine cytokine on cell lysis by LeTx: without effect
